Converted amounts (≈) assume the structure as drawn.
Tests used:
PC-3 (prostate cancer) = assay: MTT growth inhibition of human solid tumor cells, 72 h; assay type: cell-based; details: MTT
Procedure: (§1) Human solid tumor cell lines: Hep-2 (laryngeal carcinoma), A549 (human lung cancer), CaES-17 (esophageal cancer cell), PC-3 (prostate cancer), CNE (nasopharyngeal carcinoma cell), and SK-OV-3 (ovarian cancer cell), all of which are purchased from China Center For Type Culture Collection; RKO (human colon adenocarcinoma cell), MGC 803 (human gastric cancer cell), MG63 (osteosarcoma) and U87 MG (malignant glioma cell), all of which are purchased from Fuxiang Bio-tech Co. Ltd., Shanghai, China; PANC-1 (pancreatic cancer), Huh7 (human liver cancer cell), Becap37 (human breast cancer cell), and Hela (human cervical cancer cell), all of which are donated by Cancer Research Institute of Zhejiang University, China.
(§2) Obtaining 4000 well-growing human solid tumor cells and inoculating them into wells of a 96-well cell culture plate. The culture medium is DMEM High Glucose cell culture medium containing 10% fetal bovine serum. The plate is placed in a carbon dioxide cell incubator (5% CO2) at 37° C. and incubated for 24 hours. After adding the homoharringtonine derivatives of different concentration and mixing uniformly, the plate is placed in a carbon dioxide cell incubator (5% CO2) at 37° C. and incubated for 72 hours. Then the viable cell concentration is determined by the MTT method and the cell viability (%) after drug treatment is calculated. In this experiment, the cell viability of control group (not treated with any compound) is set as 100%.

[1] = tested on: Hep-2 (laryngeal carcinoma); assay: as above; assay type: cell-based
Procedure: as §1, §2

[2] = tested on: RKO (human colon adenocarcinoma cell); assay: as above; assay type: cell-based
Procedure: as §1, §2

[3] = tested on: SK-OV-3 (ovarian cancer cell); assay: as above; assay type: cell-based
Procedure: as §1, §2

[4] = tested on: Huh7 (human liver cancer cell); assay: as above; assay type: cell-based
Procedure: as §1, §2

MG63 (osteosarcoma) = assay: as above; assay type: cell-based
Procedure: as §1, §2

A549 (human lung cancer) = assay: as above; assay type: cell-based
Procedure: as §1, §2

[5] = tested on: Hela (human cervical cancer cell); assay: as above; assay type: cell-based
Procedure: as §1, §2

[6] = tested on: U87 MG (malignant glioma cell); assay: as above; assay type: cell-based
Procedure: as §1, §2

[7] = tested on: CaES-17 (esophageal cancer cell); assay: as above; assay type: cell-based
Procedure: as §1, §2

[8] = tested on: CNE (nasopharyngeal carcinoma cell); assay: as above; assay type: cell-based
Procedure: as §1, §2

[9] = tested on: PANC-1 (pancreatic cancer); assay: as above; assay type: cell-based
Procedure: as §1, §2

[10] = tested on: MGC 803 (human gastric cancer cell); assay: as above; assay type: cell-based
Procedure: as §1, §2

[11] = tested on: Becap37 (human breast cancer cell); assay: as above; assay type: cell-based
Procedure: as §1, §2

[12] = tested on: Jurkat (acute lymphoblastic leukemia, ALL); assay: MTT growth inhibition of leukemia cells, 72 h; assay type: cell-based, human
Text: (§3) Leukemia cell lines: leukemia cell lines: K562/adr (drug-resistant, chronic myeloid leukemia, CML), NB4 (acute promyelocytic leukemia, AML), Kasumi-1 (acute myeloid leukemia M2 type, AML-M2), Jurkat (acute lymphoblastic leukemia, ALL), all of which are donated by Cancer Research Institute of Zhejiang University, China; and H9 (acute lymphoblastic leukemia, ALL), which is purchased from China Center for Type Culture Collection (CCTCC).
(§4) Reagents: The standard sample of homoharringtonine (HHT) is purchased from Taihua Natural Plant Pharmaceutical Co., Ltd., Shaanxi, China, the homoharringtonine derivatives of the present invention.
(§5) Obtaining 6000 well-growing leukemia cells and inoculating them into wells of a 96-well cell culture plate. The culture medium is the 1640 cell culture medium containing 10% fetal bovine serum. After adding the homoharringtonine derivatives of different concentrations and mixing uniformly, placing the plate in a carbon dioxide cell incubator (5% CO2) at 37° C. and incubated for 72 hours. Then the viable cell concentration is determined by the MTT method. In this experiment, the cell viability in control group (not treated with any compound) is set as 100%. On such basis, the cell viability (%) after treatment and the 50% inhibiting concentration of the compound for the leukemia cell growth at 72 hours (IC50 value of 72 hours) are calculated.

[13] = tested on: K562/adr (drug-resistant, chronic myeloid leukemia, CML); assay: MTT growth inhibition of leukemia cells, 72 h; assay type: cell-based, human; details: MTT
Text: as §3, §4, §5

[14] = tested on: H9 (acute lymphoblastic leukemia, ALL); assay: MTT growth inhibition of leukemia cells, 72 h; assay type: cell-based, human; details: MTT
Text: as §3, §4, §5

[15] = tested on: Kasumi-1 (acute myeloid leukemia M2 type, AML-M2); assay: MTT growth inhibition of leukemia cells, 72 h; assay type: cell-based, human
Text: as §3, §4, §5

[16] = tested on: NB4 (acute promyelocytic leukemia, AML); assay: MTT growth inhibition of leukemia cells, 72 h; assay type: cell-based, human; details: MTT
Text: as §3, §4, §5

[17] = tested on: RPMI8226 (multiple myeloma); assay: MTT growth inhibition of multiple myeloma cells, 72 h; assay type: cell-based, human
Procedure: Multiple myeloma and lymphoma cell lines: RPMI8226 (multiple myeloma), purchased from Fuxiang Bio-tech Co. Ltd., Shanghai, China.
as §5

## COC(=O)C[C@](O)(CCCC(C)(C)OC(=O)c1cnoc1C)C(=O)O[C@@H]1C(OC)=C[C@]23CCCN2CCc2cc4c(cc2[C@H]13)OCO4 [BS-HH-061]
PC-3 (prostate cancer)
  IC50 PC-3: 3.15 µg/mL (≈ 4.81 µM)
  IC90 PC-3: >16 µg/mL
[1]
  IC50 Hep-2: 0.39 µg/mL (≈ 0.596 µM)
  IC90 Hep-2: >16 µg/mL
[2]; MTT
  IC50 RKO: 0.039 µg/mL (≈ 0.0596 µM)
  IC90 RKO: 0.24 µg/mL (≈ 0.367 µM)
[3]; MTT
  IC50 SK-OV-3: 0.4 µg/mL (≈ 0.611 µM)
  IC90 SK-OV-3: >16 µg/mL
[4]
  IC50 Huh7: 0.056 µg/mL (≈ 0.0855 µM)
  IC90 Huh7: 0.34 µg/mL (≈ 0.519 µM)
MG63 (osteosarcoma); MTT
  IC50 MG 63: 0.093 µg/mL (≈ 0.142 µM)
  IC90 MG 63: 10.76 µg/mL (≈ 16.4 µM)
A549 (human lung cancer)
  IC50 A549: 0.52 µg/mL (≈ 0.794 µM)
  IC90 A549: >16 µg/mL
[5]; MTT
  IC50 Hela: 0.31 µg/mL (≈ 0.473 µM)
  IC90 Hela: 16 µg/mL (≈ 24.4 µM)
[6]
  IC50 U87 MG: 0.31 µg/mL (≈ 0.473 µM)
  IC90 U87 MG: 0.96 µg/mL (≈ 1.47 µM)
[7]
  IC50 CaES-17: 0.38 µg/mL (≈ 0.58 µM)
  IC90 CaES-17: 16 µg/mL (≈ 24.4 µM)
[8]; MTT
  IC50 CNE: 0.42 µg/mL (≈ 0.642 µM)
  IC90 CNE: >16 µg/mL
[9]; MTT
  IC50 PANC-1: 0.21 µg/mL (≈ 0.321 µM)
  IC90 PANC-1: >16 µg/mL
[10]
  IC50 MGC 803: 0.058 µg/mL (≈ 0.0886 µM)
  IC90 MGC 803: 0.16 µg/mL (≈ 0.244 µM)
[11]
  IC50 Becap37: 0.17 µg/mL (≈ 0.26 µM)
  IC90 Becap37: 16 µg/mL (≈ 24.4 µM)
[12]
  IC50 Jurkat: 0.071 µg/mL (≈ 0.108 µM)
  IC90 Jurkat: ≥ 16 µg/mL
[13]
  IC50 K562/adr: 0.24 µg/mL (≈ 0.367 µM)
  IC90 K562/adr: 12.57 µg/mL (≈ 19.2 µM)
[14]
  IC50 H9: 0.14 µg/mL (≈ 0.214 µM)
  IC90 H9: 0.25 µg/mL (≈ 0.382 µM)
[15]; MTT
  IC50 Kasumi-1: 0.062 µg/mL (≈ 0.0947 µM)
  IC90 Kasumi-1: 0.23 µg/mL (≈ 0.351 µM)
[16]
  IC50 NB4: 0.07 µg/mL (≈ 0.107 µM)
  IC90 NB4: 0.14 µg/mL (≈ 0.214 µM)
[17]; MTT
  IC50 RPMI8226: 0.062 µg/mL (≈ 0.0947 µM)
  IC90 RPMI8226: 0.25 µg/mL (≈ 0.382 µM)

## COC(=O)C[C@](O)(CCCC(C)(C)OC(=O)c1scnc1C)C(=O)O[C@@H]1C(OC)=C[C@]23CCCN2CCc2cc4c(cc2[C@H]13)OCO4 [BS-HH-0721]
PC-3 (prostate cancer); Homo sapiens
  IC50: 0.04 µg/mL (≈ 0.0596 µM)
  IC90: > 16 µg/mL
[1]; Homo sapiens, HEp-2
  IC50: 0.004 µg/mL (≈ 0.00596 µM)
  IC90: > 16 µg/mL
[2]; Homo sapiens, MTT
  IC50: 0.0009 µg/mL (≈ 0.00134 µM)
  IC90: 0.005 µg/mL (≈ 0.00745 µM)
[2]; vs HHT
  anti-RKO effect relative to homoharringtonine: substantially superior
[3]; Homo sapiens, SK-OV-3, MTT
  IC50: 0.022 µg/mL (≈ 0.0328 µM)
  IC90: > 16 µg/mL
[4]; Homo sapiens, Huh-7
  IC50: 0.0022 µg/mL (≈ 0.00328 µM)
  IC90: 0.038 µg/mL (≈ 0.0567 µM)
MG63 (osteosarcoma); Homo sapiens, MG-63, MTT
  IC50: 0.006 µg/mL (≈ 0.00894 µM)
  IC90: 0.44 µg/mL (≈ 0.656 µM)
MG63 (osteosarcoma); vs HHT
  anti-MG63 effect relative to homoharringtonine: substantially superior
A549 (human lung cancer); Homo sapiens, A549
  IC50: 0.01 µg/mL (≈ 0.0149 µM)
  IC90: > 16 µg/mL
[5]; Homo sapiens, HeLa, MTT
  IC50: 0.005 µg/mL (≈ 0.00745 µM)
  IC90: 16 µg/mL (≈ 23.9 µM)
[5]; vs HHT
  anti-Hela effect relative to homoharringtonine: > 4.0 fold
[6]; Homo sapiens, U-87 MG
  IC50: 0.008 µg/mL (≈ 0.0119 µM)
  IC90: 0.07 µg/mL (≈ 0.104 µM)
[7]; Homo sapiens, CaEs17
  IC50: 0.014 µg/mL (≈ 0.0209 µM)
  IC90: 16 µg/mL (≈ 23.9 µM)
[8]; Homo sapiens, MTT
  IC50: 0.0037 µg/mL (≈ 0.00552 µM)
  IC90: > 16 µg/mL
[8]; vs HHT
  anti-CNE effect relative to homoharringtonine: more than 10 fold
[9]; Homo sapiens, PANC-1, MTT
  IC50: 0.009 µg/mL (≈ 0.0134 µM)
  IC90: > 16 µg/mL
[9]; vs HHT
  anti-PANC-1 effect relative to homoharringtonine: > 4 fold
[10]; Homo sapiens, MGC-803
  IC50: 0.006 µg/mL (≈ 0.00894 µM)
  IC90: 0.019 µg/mL (≈ 0.0283 µM)
[11]; Homo sapiens
  IC50: 0.003 µg/mL (≈ 0.00447 µM)
  IC90: 8.17 µg/mL (≈ 12.2 µM)
[12]; Homo sapiens, Jurkat
  IC50: 0.002 µg/mL (≈ 0.00298 µM)
  IC90: ≥ 16 µg/mL
[13]; Homo sapiens, K562/Adr
  IC50: 0.01 µg/mL (≈ 0.0149 µM)
  IC90: 0.05 µg/mL (≈ 0.0745 µM)
[14]; Homo sapiens
  IC50: 0.003 µg/mL (≈ 0.00447 µM)
  IC90: 0.009 µg/mL (≈ 0.0134 µM)
[15]; Homo sapiens, Kasumi 1, MTT
  IC50: 0.002 µg/mL (≈ 0.00298 µM)
  IC90: 0.004 µg/mL (≈ 0.00596 µM)
[16]; Homo sapiens
  IC50: 0.003 µg/mL (≈ 0.00447 µM)
  IC90: 0.005 µg/mL (≈ 0.00745 µM)
[17]; Homo sapiens, RPMI-8226, MTT
  IC50: 0.002 µg/mL (≈ 0.00298 µM)
  IC90: 0.014 µg/mL (≈ 0.0209 µM)

Source: patent publication US9428519B2, “Acylated derivative of homoharringtonine, preparation method therefor, and application thereof” (HANGZHOU BENSHENG PHARMACEUTICAL CO., LTD., priority 2011, dated 2016)
